Test results from US20210010031A1, “LENTIVIRAL VECTORS FOR HIGH-TITER TRANSDUCTION OF PRIMARY HUMAN CELLS” (priority 2018, published 2021).

Legend:
HA-tagged FAM208A = HA-tagged FAM208A (Homo sapiens, UniProt Q9UK61); assay: Co-immunoprecipitation of HA-FAM208A with FLAG-Vpx in HEK293 cells; assay type: binding; settings: versus untreated cells with wild-type SIVMAC251 Vpx (FIG. 17H)
Source text: Degradation of SAMHD1 requires direct interaction with Vpx or Vpr. To determine if Vpx similarly associates with proteins of the HUSH complex, HA-tagged FAM208A was co-transfected into HEK293 cells with FLAG-tagged SIVMAC251 Vpx or SIVRCM02CM8081 Vpx. When anti-FLAG antibody was used to immunoprecipitate either of the two Vpx proteins from the soluble cell lysate, HA-FAM208A was detected in the immunoprecipitate (FIG. 17H). The strength of the FAM208A signal in the Vpx pull-out increased when the co-transfected HEK293 cells were incubated with the proteasome inhibitor PR171, or when wild-type SIVMAC251 Vpx was replaced in the transfection by a mutant (Q76A) that is incapable of binding DCAF1 (FIG. 17H and FIGS. 21D and 21E).
Cells were washed in PBS, counted, normalized for cell number, and lysed directly in 1×SDS-PAGE sample buffer. Samples were run on NuPage 4-12% Bis-Tris gels followed by blotting onto nitrocellulose membranes. Primary antibodies used: FAM208A (Atlas, HPA00875), MPHOSPH8 (Proteintech, 16796-1-AP), PPHLN1 (Sigma, HPA038902), SETDB1 (Proteintech 11231-1-AP), DCAF1 (Proteintech, 11612-1-AP), FLAG (Novus, NB600-345), FLAG (Sigma, F1804, used for IP), and HA (Biolegend, 901501).

Jurkat LTR-gfp cells = assay: HIV-1 LTR-gfp provirus pool in Jurkat T cells; assay type: cell-based, human; settings: four weeks after transduction with LTR-GFP (FIG. 22B)
Source text: J-Lat A1 was selected to have a silent HIV-1 LTR-driven provirus with the ability to reactivate in response to TNFα^31. The unique provirus within a clone such as J-Lat A1 may be sensitive to position-dependent silencing effects and therefore may not accurately reflect the sensitivity of a population of HIV-1 proviruses to transcriptional activation by Vpx or to silencing by FAM208A. To address the effect of Vpx and FAM208A on a population of proviruses with diverse integration sites, Jurkat T cells were transduced with an HIV-1 LTR driven reporter vector (LTR-gfp) that retains complete LTRs, tat, and rev, but has a frameshift mutation in env, an ngfr reporter gene in place of nef, and gfp in place of gag, pol, vif, and vpr (FIG. 18D). Four weeks after transduction with LTR-GFP, the presence of latent proviruses within the pool of Jurkat cells was confirmed by reactivation with either TNFα or TCR-stimulation (FIG. 22B). […] Compared with control cells, vpx or FAM208A knockdown increased the percentage of GFP cells, whether cells were treated with TNFα or not (FIGS. 18E and 18F). […] Additionally, expression vectors for SIVMND25440 Vpx, SIVRCM02CM8081 Vpx, SIVMND1GB1 Vpr, or […]1 Vpr all increased GFP expression in Jurkat LTR-gfp cells (FIG. 22C). […]
Cells were fixed in BD Cytofix Buffer prior to data acquisition on a BD C6 Accuri. Data was analyzed in FlowJo.

HA-tagged FAM208A, sequence (Q9UK61 whole entry): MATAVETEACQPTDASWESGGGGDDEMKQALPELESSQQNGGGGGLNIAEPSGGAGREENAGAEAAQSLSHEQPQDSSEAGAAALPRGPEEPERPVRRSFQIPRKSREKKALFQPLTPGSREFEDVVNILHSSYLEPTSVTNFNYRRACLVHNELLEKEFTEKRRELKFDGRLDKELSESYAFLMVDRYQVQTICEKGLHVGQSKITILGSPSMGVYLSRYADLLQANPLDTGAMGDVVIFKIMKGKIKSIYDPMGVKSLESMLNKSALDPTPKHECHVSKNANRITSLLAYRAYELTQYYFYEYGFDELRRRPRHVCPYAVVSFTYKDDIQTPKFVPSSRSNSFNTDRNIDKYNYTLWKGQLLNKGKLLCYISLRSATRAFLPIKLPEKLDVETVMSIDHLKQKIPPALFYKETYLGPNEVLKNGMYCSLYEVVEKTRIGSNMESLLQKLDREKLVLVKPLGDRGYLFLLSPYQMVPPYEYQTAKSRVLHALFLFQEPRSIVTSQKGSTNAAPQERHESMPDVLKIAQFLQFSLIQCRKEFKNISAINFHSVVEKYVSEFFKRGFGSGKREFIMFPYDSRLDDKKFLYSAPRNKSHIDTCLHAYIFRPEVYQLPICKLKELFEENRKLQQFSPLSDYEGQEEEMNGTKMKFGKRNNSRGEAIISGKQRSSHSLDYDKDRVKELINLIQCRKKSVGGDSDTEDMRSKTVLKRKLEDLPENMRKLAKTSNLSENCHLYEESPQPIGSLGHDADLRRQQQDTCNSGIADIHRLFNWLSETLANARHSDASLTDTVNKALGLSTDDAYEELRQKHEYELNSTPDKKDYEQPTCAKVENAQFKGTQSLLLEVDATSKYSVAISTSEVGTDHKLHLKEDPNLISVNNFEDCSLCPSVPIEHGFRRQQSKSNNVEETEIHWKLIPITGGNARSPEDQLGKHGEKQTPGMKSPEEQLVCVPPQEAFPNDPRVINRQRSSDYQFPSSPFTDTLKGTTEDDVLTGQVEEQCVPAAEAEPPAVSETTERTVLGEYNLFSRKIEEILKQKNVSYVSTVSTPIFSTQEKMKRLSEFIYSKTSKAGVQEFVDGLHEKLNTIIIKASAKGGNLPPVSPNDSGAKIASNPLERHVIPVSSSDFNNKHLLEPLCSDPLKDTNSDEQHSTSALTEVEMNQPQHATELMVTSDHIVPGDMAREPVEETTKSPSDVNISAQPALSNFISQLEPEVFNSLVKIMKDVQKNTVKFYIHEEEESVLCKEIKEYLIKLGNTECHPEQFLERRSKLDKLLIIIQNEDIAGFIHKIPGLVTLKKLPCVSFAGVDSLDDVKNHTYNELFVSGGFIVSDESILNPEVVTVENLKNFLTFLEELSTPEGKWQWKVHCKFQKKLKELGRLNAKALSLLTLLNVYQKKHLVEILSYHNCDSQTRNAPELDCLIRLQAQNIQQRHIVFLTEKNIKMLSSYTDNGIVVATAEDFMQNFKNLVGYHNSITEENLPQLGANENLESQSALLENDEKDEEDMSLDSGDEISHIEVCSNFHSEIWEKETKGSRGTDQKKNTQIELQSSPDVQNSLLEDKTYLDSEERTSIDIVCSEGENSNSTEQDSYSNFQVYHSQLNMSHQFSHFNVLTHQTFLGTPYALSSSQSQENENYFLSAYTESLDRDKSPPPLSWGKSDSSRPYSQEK

Row | Compound | strength of the FAM208A signal in the Vpx pull-out (HA-tagged FAM208A) | reactivation of latent proviruses (Jurkat LTR-gfp cells)
1 | CC(C)C[C@H](NC(=O)[C@H](CCc1ccccc1)NC(=O)CN1CCOCC1)C(=O)N[C@@H](Cc1ccccc1)C(=O)N[C@@H](CC(C)C)C(=O)[C@@]1(C)CO1 [PR171] | increased | 
2 | TNFα |  | reactivation
